From PubChem BioAssay AID1963831 (Molecular Pharmacology Branch, DTP, NCI, 2024)

Tested on: 889142-216-R-J1-PDC complex spheroid viability
Assay: Anticancer human tumor 889142-216-R-J1-PDC patient-derived bladder carcinoma cell line growth inhibition [POLQ]
Conditions: for IC50: curve of first compound; for viability, T/C: stronger effect = lower value
In short: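 Three-cell-type spheroids modelling solid tumor plus stroma served as the readout system; POL inhibitors were tested individually and in combination, concentration ranges set by clinical Cmax where known.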

[1] = second compound 0.0316 µM, first compound 0.0316 µM
[2] = second compound 0.0316 µM, first compound 0.1 µM
[3] = second compound 0.0316 µM, first compound 0.316 µM
[4] = second compound 0.0316 µM, first compound 1 µM
[5] = second compound 0.0316 µM, first compound 3.16 µM
[6] = second compound 0.0316 µM, first compound 10 µM
[7] = second compound 0.1 µM, first compound 0.0316 µM
[8] = second compound 0.1 µM, first compound 0.1 µM
[9] = second compound 0.1 µM, first compound 0.316 µM
[10] = second compound 0.1 µM, first compound 1 µM
[11] = second compound 0.1 µM, first compound 3.16 µM
[12] = second compound 0.1 µM, first compound 10 µM
[13] = second compound 0.316 µM, first compound 0.0316 µM
[14] = second compound 0.316 µM, first compound 0.1 µM
[15] = second compound 0.316 µM, first compound 0.316 µM
[16] = second compound 0.316 µM, first compound 1 µM
[17] = second compound 0.316 µM, first compound 3.16 µM
[18] = second compound 0.316 µM, first compound 10 µM
[19] = second compound 1 µM, first compound 0.0316 µM
[20] = second compound 1 µM, first compound 0.1 µM
[21] = second compound 1 µM, first compound 0.316 µM
[22] = second compound 1 µM, first compound 1 µM
[23] = second compound 1 µM, first compound 3.16 µM
[24] = second compound 1 µM, first compound 10 µM
[25] = second compound 3.16 µM, first compound 0.0316 µM
[26] = second compound 3.16 µM, first compound 0.1 µM
[27] = second compound 3.16 µM, first compound 0.316 µM
[28] = second compound 3.16 µM, first compound 1 µM
[29] = second compound 3.16 µM, first compound 3.16 µM
[30] = second compound 3.16 µM, first compound 10 µM
[31] = second compound 10 µM, first compound 0.0316 µM
[32] = second compound 10 µM, first compound 0.1 µM
[33] = second compound 10 µM, first compound 0.316 µM
[34] = second compound 10 µM, first compound 1 µM
[35] = second compound 10 µM, first compound 3.16 µM
[36] = second compound 10 µM, first compound 10 µM
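Also: spheroids exposed to compounds for seven days.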
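For viability, T/C in this document: 100% = DMSO vehicle control viability.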

For C=CC(=O)N1CCN(c2nc(=O)n(-c3c(C)ccnc3C(C)C)c3nc(-c4c(O)cccc4F)c(F)cc23)C(C)C1 (stereo unspecified) + Nc1ccc(C#CCN(C(=O)Cc2ncc(C(F)(F)F)cc2C(F)(F)F)c2ccc(F)cc2)nn1, the IC50 (second compound 0.0316 µM) was > 10 µM, the IC50 (second compound 0.1 µM) was > 10 µM and the IC50 (second compound 0.316 µM) was > 10 µM. The IC50 (second compound 1 µM) was > 10 µM, the IC50 (second compound 3.16 µM) was > 10 µM and the IC50 (second compound 10 µM) was > 10 µM. The viability, T/C [1] was 95.4%, the viability, T/C [2] was 111% and the viability, T/C [3] was 87.8%. For the same compound, the viability, T/C [4] was 121%, the viability, T/C [5] was 133% and the viability, T/C [6] was 93.6%. It also gave a viability, T/C [7] of 103%, a viability, T/C [8] of 89.2% and a viability, T/C [9] of 109%. It also gave a viability, T/C [10] of 129%, a viability, T/C [11] of 111% and a viability, T/C [12] of 102%. It also gave a viability, T/C [13] of 135%, a viability, T/C [14] of 127% and a viability, T/C [15] of 96.3%. It also gave a viability, T/C [16] of 96.5%, a viability, T/C [17] of 145% and a viability, T/C [18] of 111%. It also gave a viability, T/C [19] of 113%, a viability, T/C [20] of 86% and a viability, T/C [21] of 120%. The viability, T/C [22] was 121%, the viability, T/C [23] was 116% and the viability, T/C [24] was 100%. It also gave a viability, T/C [25] of 126%, a viability, T/C [26] of 88.3% and a viability, T/C [27] of 119%. It also gave a viability, T/C [28] of 88.8%, a viability, T/C [29] of 119% and a viability, T/C [30] of 104%. For the same compound, the viability, T/C [31] was 99.5%, the viability, T/C [32] was 114% and the viability, T/C [33] was 121%. The viability, T/C [34] was 95.1%, the viability, T/C [35] was 126% and the viability, T/C [36] was 131%.

With CNCc1ccc(-c2[nH]c3cc(F)cc4c3c2CCNC4=O)cc1 + COC1C(OC(N)=O)C(O)C(Oc2ccc3c(O)c(NC(=O)c4ccc(O)c(CC=C(C)C)c4)c(=O)oc3c2C)OC1(C)C the IC50 (second compound 0.0316 µM) was > 10 µM, the IC50 (second compound 0.1 µM) was > 10 µM and the IC50 (second compound 0.316 µM) was > 10 µM. The IC50 (second compound 1 µM) was > 10 µM, the IC50 (second compound 3.16 µM) was > 10 µM and the IC50 (second compound 10 µM) was > 10 µM. For the same compound, the viability, T/C [1] was 120%, the viability, T/C [2] was 97.3% and the viability, T/C [3] was 100%. The viability, T/C [4] was 105%, the viability, T/C [5] was 97.2% and the viability, T/C [6] was 79.5%. The viability, T/C [7] was 109%, the viability, T/C [8] was 107% and the viability, T/C [9] was 96.4%. For the same compound, the viability, T/C [10] was 93.2%, the viability, T/C [11] was 98.1% and the viability, T/C [12] was 85.4%. It also gave a viability, T/C [13] of 103%, a viability, T/C [14] of 98.6% and a viability, T/C [15] of 90.6%. For the same compound, the viability, T/C [16] was 122%, the viability, T/C [17] was 97.6% and the viability, T/C [18] was 58.2%. For the same compound, the viability, T/C [19] was 96.8%, the viability, T/C [20] was 92.6% and the viability, T/C [21] was 103%. The viability, T/C [22] was 94.3%, the viability, T/C [23] was 82.6% and the viability, T/C [24] was 84.2%. The viability, T/C [25] was 89.2%, the viability, T/C [26] was 106% and the viability, T/C [27] was 92%. It also gave a viability, T/C [28] of 83.9%, a viability, T/C [29] of 93.2% and a viability, T/C [30] of 89.3%. The viability, T/C [31] was 115%, the viability, T/C [32] was 98.2% and the viability, T/C [33] was 88.5%. The viability, T/C [34] was 83.4%, the viability, T/C [35] was 104% and the viability, T/C [36] was 84%.

C#Cc1c(F)ccc2cc(O)cc(-c3ncc4c(N5CC6CCC(C5)N6)nc(OCC56CCCN5CC(F)C6)nc4c3F)c12 (stereo unspecified) + COC1C(OC(N)=O)C(O)C(Oc2ccc3c(O)c(NC(=O)c4ccc(O)c(CC=C(C)C)c4)c(=O)oc3c2C)OC1(C)C was tested, and the IC50 (second compound 0.0316 µM) was 5.38 µM, the IC50 (second compound 0.1 µM) was 9.08 µM and the IC50 (second compound 0.316 µM) was 5.82 µM. It also gave an IC50 (second compound 1 µM) of 4.77 µM, an IC50 (second compound 3.16 µM) of 5.53 µM and an IC50 (second compound 10 µM) of 4.96 µM. For the same compound, the viability, T/C [1] was 99.2%, the viability, T/C [2] was 111% and the viability, T/C [3] was 66.3%. It also gave a viability, T/C [4] of 88.7%, a viability, T/C [5] of 63.7% and a viability, T/C [6] of 34.5%. The viability, T/C [7] was 108%, the viability, T/C [8] was 109% and the viability, T/C [9] was 77.4%. The viability, T/C [10] was 89.5%, the viability, T/C [11] was 81.5% and the viability, T/C [12] was 44.3%. For the same compound, the viability, T/C [13] was 119%, the viability, T/C [14] was 113% and the viability, T/C [15] was 82.5%. For the same compound, the viability, T/C [16] was 97.3%, the viability, T/C [17] was 76.1% and the viability, T/C [18] was 29.4%. For the same compound, the viability, T/C [19] was 89.1%, the viability, T/C [20] was 91.8% and the viability, T/C [21] was 95.4%. It also gave a viability, T/C [22] of 82%, a viability, T/C [23] of 62.8% and a viability, T/C [24] of 27.8%. For the same compound, the viability, T/C [25] was 96.9%, the viability, T/C [26] was 84.9% and the viability, T/C [27] was 95%. The viability, T/C [28] was 79.2%, the viability, T/C [29] was 78.2% and the viability, T/C [30] was 23.2%. The viability, T/C [31] was 103%, the viability, T/C [32] was 87.2% and the viability, T/C [33] was 76.1%. The viability, T/C [34] was 76.8%, the viability, T/C [35] was 71.5% and the viability, T/C [36] was 27.1%.
